What was measured:
[1] = Stability under mechanical force: ball milling, XRPD; assay type: physicochemical; settings: 500 rpm, 5 minutes, XRPD before and after
Method: A crystal-form-CSII sample was ball-milled at a vibration speed of 500 rpm for 5 minutes using a ball mill, the sample before and after ball milling was tested by XRPD, the test result is shown in FIG. 17, and crystal form CSII is not changed after ball milling.
A crystal-form-CSIII sample was ball-milled at a vibration speed of 500 rpm for 5 minutes using a ball mill. The sample before and after ball milling was tested by XRPD, the test result is shown in FIG. 22, and crystal form CSIII is not changed after the ball milling.
A crystal-form-CSIV sample was ball-milled at a vibration speed of 500 rpm for 5 minutes using a ball mill, the sample before and after ball milling was tested by XRPD, the test result is shown in FIG. 25, and crystal form CSIV is not changed after ball milling.
A crystal-form-CSV sample was ball-milled at a vibration speed of 500 rpm for 5 minutes using a ball mill, the sample before and after ball milling was tested by XRPD, the test result is shown in FIG. 28, and crystal form CSV is not changed after ball milling.

[2] = Thermal gravimetric analysis (TGA); assay type: physicochemical; settings: 10° C./min, N2
Method: The thermal gravimetric analysis (TGA) pattern as described in the invention is collected by TA Q500. The parameters for the thermal gravimetric analysis (TGA) method described in the invention are as follows: • scanning speed: 10° C./min, • protective gas: N2.

[3] = Storage stability of crystal form drug substance (HPLC purity and XRPD); assay type: physicochemical
Method: The X-ray powder diffraction pattern described in the invention is collected by a Bruker X-ray powder diffractometer. The parameters for the X-ray powder diffraction method according to the invention are as follows: • X-ray light source: Cu, Kα, • Kα1 (Å): 1.54060; Kα2 (Å): 1.54439, • Kα2/Kα1 intensity ratio: 0.50.
An appropriate amount of a crystal-form-CSI sample was packaged under corresponding packaging conditions and stored at 40° C./75% RH for a certain period of time, the purity and crystal form were determined by HPLC and XRPD, and the results are shown in Table 7.
Open: a sample was placed in a glass vial without a lid and stored in corresponding environment while the vial was open.
An appropriate amount of a crystal-form-CSII sample was packaged under corresponding packaging conditions and stored for a certain period of time at 25° C./60% RH, 40° C./75% RH, and 60° C./75% RH, the purity and crystal form were determined by HPLC and XRPD, and the result is shown in Table 12.
Sealing: The sample was placed in a glass vial, which was covered by a lid and sealed in a double-layer PE bag, followed by an aluminum foil bag. […]
Sealed: The sample was placed in a glass vial, which was covered by a lid and sealed in a double-layer PE bag, followed by an aluminum foil bag. […]
An appropriate amount of a crystal-form-CSV sample was packaged under corresponding packaging conditions and stored for a certain period of time at 25° C./60% RH, 40° C./75% RH, and 60° C./75% RH, the purity and crystal form were determined by HPLC and XRPD, and the result is shown in Table 16.

[4] = Hygroscopicity by dynamic vapor sorption (DVS); assay type: physicochemical; settings: for weight increase due to hygroscopicity: 25° C.
Method: The dynamic vapor sorption (DVS) pattern for the experiment is collected by an Intrinsic dynamic vapor sorption instrument manufactured by Surface Measurement Systems Ltd. (SMS). Control software for the instrument is DVS-Intrinsic control software. The method parameters of the dynamic vapor sorption instrument are as follows: • temperature: 25° C., • carrier gas, and flow rate: N2, and 200 ml/min, • mass change per unit time: 0.002%/min, • relative humidity range: 0% RH-95% RH.
About 10 mg of a crystal-form-CSI sample was taken and tested for hygroscopicity using a dynamic vapor sorption (DVS) instrument, with a relative humidity cycle of 30%-90%-0%-90% RH, and a mass change for each humidity was recorded. The sample was tested by XRPD before and after DVS testing. […] The DVS pattern of crystal form CSI is shown in FIG. 13, and the weight increase of crystal form CSI due to hygroscopicity is 0.36% at 30%-80% RH.
About 10 mg of a crystal-form-CSII sample was taken and tested for hygroscopicity using a dynamic vapor sorption (DVS) instrument, with a relative humidity cycle of 0%-90%-0% RH, and a mass change for each humidity was recorded. The sample was tested by XRPD before and after DVS testing. […] The DVS pattern of crystal form CSII is shown in FIG. 18, and the weight increase of crystal form CSII due to hygroscopicity is 0.28% at 0%-80% RH.
About 10 mg of a crystal-form-CSIII sample was taken and tested for hygroscopicity using a dynamic vapor sorption (DVS) instrument, with a relative humidity cycle of 0%-90%-0% RH, and a mass change for each humidity was recorded. The sample was tested by XRPD before and after DVS testing. […] The DVS pattern of crystal form CSIII is shown in FIG. 23, and the weight increase of crystal form CSIII due to hygroscopicity is 0.21% at 0%-80% RH.
About 10 mg of a crystal-form-CSIV sample was taken and tested for hygroscopicity using a dynamic vapor sorption (DVS) instrument, with a relative humidity cycle of 0%-90%-0% RH, and a mass change for each humidity was recorded. The sample was tested by XRPD before and after DVS testing. […] The DVS pattern of crystal form CSIV is shown in FIG. 26, and the weight increase of crystal form CSIV due to hygroscopicity is 0.11% at 0%-80% RH.
About 10 mg of a crystal-form-CSV sample was taken and tested for hygroscopicity using a dynamic vapor sorption (DVS) instrument, with a cycle of 30%-90%-0%-90% RH, and a mass change for each humidity was recorded. The sample was tested by XRPD before and after DVS testing. […] The DVS pattern of crystal form CSV is shown in FIG. 29, and the weight increase of crystal form CSV due to hygroscopicity is 0.29% at 30%-80% RH.

[5] = Stability under mechanical force: tableting, XRPD; assay type: physicochemical; settings: 15 KN, φ 6 mm round tooling, XRPD before and after
[6] = Crystal form stability in formulation process, XRPD; assay type: physicochemical; settings: formula Table 8, process Table 10, XRPD
Method: A crystal-form-CSI formulation was prepared by using the formulation formula shown in table 8 and the formulation process shown in table 10, and a formula for mixture of excipients is shown in table 9. A mixture of excipients and the sample before and after the formulation formulas were tested by XRPD, and the result is shown in FIG. 14.
A crystal-form-CSII formulation was prepared by using the formulation formula shown in Table 8 and the formulation process shown in Table 10, and an excipient formula is shown in Table 9. A mixture of excipients and the sample before and after the formulation formulas were tested by XRPD, and the result is shown in FIG. 19.
A crystal-form-CSV formulation was prepared by using the formulation formula shown in Table 8 and the formulation process shown in Table 10, and an excipient formula is shown in Table 9. A mixture of excipients and the sample before and after the formulation formulas were tested by XRPD, and the result is shown in FIG. 30.

[7] = Phase-Ib clinical result, Cerevel Therapeutics; cited from earlier work
[8] = heated from room temperature to 180° C.

Row | SMILES | crystal form after ball milling [1] | TGA weight loss [2, 8] | stable for at least ([3]; 25° C./60% RH) | Crystal Form ([3]; 25° C./60% RH, sealed, 6 month) | stable for at least ([3]; 40° C./75% RH) | Crystal Form ([3]; 40° C./75% RH, sealed, 6 month) | stable for at least ([3]; 60° C./75% RH) | Crystal Form ([3]; 60° C./75% RH, sealed, 1 month) | Crystal Form ([3]; initial (before storage)) | weight increase due to hygroscopicity ([4]; 0%-80% RH) [%] | change in sample properties after humidity cycle ([4]; 0%-90%-0% RH cycle) | crystal form after DVS testing ([4]; 0%-90%-0% RH cycle) | crystal form after tableting [5] | Purity ([3]; 25° C./60% RH, sealed, 6 month) [%] | Purity ([3]; 40° C./75% RH, sealed, 6 month) [%] | Purity ([3]; initial (before storage)) [%] | crystal form after formulation formula processes [6] | weight increase due to hygroscopicity ([4]; 30%-80% RH) [%] | change in sample properties after humidity cycle ([4]; 30%-90%-0%-90% RH cycle) | crystal form after DVS testing ([4]; 30%-90%-0%-90% RH cycle) | other results
1 | Cc1cc(C)c2c(n1)CN(C(=O)CC1CN(c3ccnc(C(F)(F)F)c3)C1)C2 [Crystal Form CSIV] | not changed | substantially no weight loss | at least 6 months | Form CSIV | at least 6 months | Form CSIV | at least 1 month | Form CSIV | Form CSIV | 0.11 | no significant change in sample properties | not changed |  |  |  |  |  |  |  |  | 
2 | Cc1cc(C)c2c(n1)CN(C(=O)CC1CN(c3ccnc(C(F)(F)F)c3)C1)C2 [Crystal Form CSV] | not changed |  | at least 6 months | Form CSV | at least 6 months | Form CSV | at least 2 month |  | Form CSV |  |  |  | not changed | 99.96 | 99.96 | 99.96 | not changed | 0.29 | no significant change in sample properties | not changed | TGA weight loss ([2]; heated from 35° C. to 150° C.): 3.8%; Crystal Form ([3]; 60° C./75% RH, sealed, 2 month): Form CSV; Purity ([3]; 60° C./75% RH, sealed, 2 month): 99.95%
3 | Cc1cc(C)c2c(n1)CN(C(=O)CC1CN(c3ccnc(C(F)(F)F)c3)C1)C2 [Emraclidine, 1-(2,4-dimethyl-5,7-dihydro-6H-pyrrolo[3,4-b]pyridin-6-yl)-2-{1-[2-(trifluoromethyl)pyridin-4-yl]azetidin-3-yl}ethanone] |  |  |  |  |  |  |  |  |  |  |  |  |  |  |  |  |  |  |  |  | antipsychotic activities compared to placebos [7]: clinically significant antipsychotic activities
4 | Cc1cc(C)c2c(n1)CN(C(=O)CC1CN(c3ccnc(C(F)(F)F)c3)C1)C2 [Crystal Form CSIII] | not changed |  |  |  | at least 2 months |  |  |  | Form CSIII | 0.21 |  | not changed |  |  |  |  |  |  |  |  | TGA weight loss ([2]; heated from room temperature to 170° C.): substantially no weight loss; Crystal Form ([3]; 40° C./75% RH, sealed, 2 month): Form CSIII
5 | Cc1cc(C)c2c(n1)CN(C(=O)CC1CN(c3ccnc(C(F)(F)F)c3)C1)C2 [Crystal Form CSI] | remains unchanged |  |  |  | at least 6 months |  |  |  | Form CSI |  | no significant change in sample properties |  | remains unchanged |  |  | 99.53 | not changed | 0.36 | no significant change in sample properties | remains unchanged | Crystal Form ([3]; 40° C./75% RH, open, 6 month): Form CSI; Purity ([3]; 40° C./75% RH, open, 6 month): 99.59%
6 | Cc1cc(C)c2c(n1)CN(C(=O)CC1CN(c3ccnc(C(F)(F)F)c3)C1)C2 [Crystal Form CSII] | not changed | substantially no weight loss | at least 6 months | Form CSII | at least 6 months | Form CSII | at least 1 month | Form CSII | Form CSII | 0.28 | no significant change in sample properties | not changed | not changed | 99.60 | 99.57 | 99.56 | not changed |  |  |  | Purity ([3]; 60° C./75% RH, sealed, 1 month): 99.55%

Source: patent US20260337191A1, “CRYSTAL FORM OF EMRACLIDINE, PREPARATION METHOD THEREFOR, AND USE THEREOF” (Cerevel Therapeutics, LLC, priority 2022, published 2026)
